Key:
Format in all cases: in vivo
[1] = tested on: common cutworm (Spodoptera Litura); assay: Insecticidal effect on common cutworm (Test Example 2); conditions: 500 ppm, 25° C.; for Insecticidal effect on common cutworm (Test Example 2), judged grade / Insecticidal effect (Test Example 2), judged from mortality: cabbage leaf dip; for Insecticidal effect on common cutworm (Test Example 2), judged grade: second-instar larvae; for Insecticidal effect on common cutworm (Test Example 2), judged grade / Insecticidal effect, Test Example 2: eight days after inoculation; for Insecticidal effect, Test Example 2: cabbage leaf immersed; for Insecticidal effect (Test Example 2), judged from mortality: 8 days after inoculation
Summary of the method: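 Mortality is the read-out: larvae are counted as dead or alive on day 8 and the percentage is graded by an effect criterion. Second-instar larvae are kept with the air-dried treated material in a sealed dish at 25° C, in triplicate groups of ten.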

[2] = tested on: diamondback moth (Plutella xylostella); assay: Insecticidal effect on diamondback moth (Test Example 1); conditions: for Insecticidal effect on diamondback moth (Test Example 1), judged grade: mortality judged according to the criterion shown in Test Example 1; for Insecticidal effect, Test Example 1 / Insecticidal effect (Test Example 1), judged from mortality: diamondback moth; for Insecticidal effect (Test Example 1), judged from mortality: judged by the criterion of Test Example 1
Summary of the method: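 Chinese cabbage seedlings carrying eggs laid by released adult moths were immersed in treatment, air-dried and held at 25° C. Hatched insects were counted six days after immersion, and mortality was calculated and scored against a fixed criterion. Three replicate groups of 10 insects were used.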

[3] = tested on: rice leafroller (Cnaphalocrocis medinalis); assay: Insecticidal effect on rice leafroller (Test Example 3); conditions: 500 ppm, 25° C., humidity 70%; for Insecticidal effect on rice leafroller (Test Example 3), judged grade / Insecticidal effect (Test Example 3), judged from mortality: rice lamina dip; for Insecticidal effect on rice leafroller (Test Example 3), judged grade: third-instar larvae; for Insecticidal effect on rice leafroller (Test Example 3), judged grade / Insecticidal effect, Test Example 3: four days after inoculation; for Insecticidal effect, Test Example 3: rice lamina immersed; for Insecticidal effect (Test Example 3), judged from mortality: 4 days after inoculation
Summary of the method: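 Groups of 10 third-instar larvae, in triplicate, are placed on air-dried lamina resting on wet filter paper. Incubation runs four days at 25° C with 70% humidity before survivors and dead are tallied.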

[4] = common cutworm second-instar larvae
[5] = mortality judged by criterion of Test Example 1
[6] = rice leafroller third-instar larvae
[7] = second-instar larvae of common cutworm
[8] = judged by the mortality criterion of Test Example 1
[9] = third-instar larvae of rice leafroller

Cc1cc(OC(F)F)c(Cl)cc1NC(=O)c1cccc(F)c1C(=O)NC(C)C [compound 517]
Insecticidal effect on common cutworm (Test Example 2), judged grade [1]: A (100) | Insecticidal effect on diamondback moth (Test Example 1), judged grade [2]: A (100) | Insecticidal effect on rice leafroller (Test Example 3), judged grade [3]: A (100)

Cc1cc(C(F)(F)C(F)(F)F)ccc1NC(=O)c1cc(I)ccc1C(=O)NC(C)C [compound 1203]
Insecticidal effect, Test Example 2 [1, 4]: D (79-50) | Insecticidal effect, Test Example 1 [2, 5]: A (100) | Insecticidal effect, Test Example 3 [3, 6]: A (100)

Cc1cc(C(F)(F)C(F)(F)F)ccc1NC(=O)c1cccc(Cl)c1C(=O)N(C)Cc1ccccc1 [compound 1406]
Insecticidal effect, Test Example 2 [1, 4]: A (100) | Insecticidal effect, Test Example 1 [2, 5]: A (100) | Insecticidal effect, Test Example 3 [3, 6]: A (100)

Cc1cc(C(F)(F)C(F)(F)F)ccc1NC(=O)c1cccc(I)c1C(=O)N1CCCCCC1 [compound 1117]
Insecticidal effect, Test Example 2 [1, 4]: A (100) | Insecticidal effect, Test Example 1 [2, 5]: A (100) | Insecticidal effect, Test Example 3 [3, 6]: A (100)

CC(C)NC(=O)c1cccc(I)c1C(=O)Nc1ccc(C(F)(C(F)(F)F)C(F)(F)F)cc1 [compound 416]
Insecticidal effect, Test Example 2 [1, 7]: A (100) | Insecticidal effect, Test Example 1 [2, 8]: A (100) | Insecticidal effect, Test Example 3 [3, 9]: A (100)

Cc1cc(C#Cc2ccc(Cl)cc2Cl)ccc1NC(=O)c1cccc(Cl)c1C(=O)NC(C)C [compound 971]
Insecticidal effect, Test Example 2 [1, 4]: A (100) | Insecticidal effect, Test Example 1 [2, 5]: A (100) | Insecticidal effect, Test Example 3 [3, 6]: A (100)

Cc1cc(C(F)(F)C(F)(F)F)ccc1NC(=O)c1cccc(I)c1C(=O)N(C)C(C)C [compound 1042]
Insecticidal effect, Test Example 2 [1, 4]: A (100) | Insecticidal effect, Test Example 1 [2, 5]: A (100) | Insecticidal effect, Test Example 3 [3, 6]: A (100)

CCN(CC)C(=O)c1c(I)cccc1C(=O)Nc1ccc2c(c1)OC(F)(F)O2 [compound 1129]
Insecticidal effect, Test Example 2 [1, 4]: A (100) | Insecticidal effect, Test Example 1 [2, 5]: A (100) | Insecticidal effect, Test Example 3 [3, 6]: A (100)

Cc1cc(C(F)(F)C(F)(F)F)ccc1NC(=O)c1cccc(I)c1C(=O)NC(C)(C)CBr [compound 1647]
Insecticidal effect (Test Example 2), judged from mortality [1, 7]: A (100) | Insecticidal effect (Test Example 1), judged from mortality [2]: A (100) | Insecticidal effect (Test Example 3), judged from mortality [3, 9]: A (100)

CCN(C(=O)c1c(I)cccc1C(=O)Nc1ccc(OC(F)(F)F)cc1)C(C)C [compound 1160]
Insecticidal effect, Test Example 2 [1, 4]: A (100) | Insecticidal effect, Test Example 1 [2, 5]: A (100) | Insecticidal effect, Test Example 3 [3, 6]: A (100)

CCC(CC)NC(=O)c1c(I)cccc1C(=O)Nc1ccc(C(F)(F)C(F)(F)F)cc1C [compound 1011]
Insecticidal effect, Test Example 2 [1, 4]: A (100) | Insecticidal effect, Test Example 1 [2, 5]: A (100) | Insecticidal effect, Test Example 3 [3, 6]: A (100)

Cc1cc(C(F)(F)C(F)(F)Br)ccc1NC(=O)c1ccccc1C(=O)NC(C)C [compound 63]
Insecticidal effect, Test Example 2 [1, 7]: B (99-90) | Insecticidal effect, Test Example 1 [2, 8]: A (100) | Insecticidal effect, Test Example 3 [3, 9]: A (100)

CCCN(CC)C(=O)c1c(I)cccc1C(=O)Nc1ccc(C(F)(F)C(F)(F)F)cc1C [compound 1573]
Insecticidal effect (Test Example 2), judged from mortality [1, 7]: A (100) | Insecticidal effect (Test Example 1), judged from mortality [2]: A (100) | Insecticidal effect (Test Example 3), judged from mortality [3, 9]: A (100)

Cc1cc(Oc2ncc(C(F)(F)F)cc2Cl)ccc1NC(=O)c1cccc(I)c1C(=O)NC(C)C [compound 400]
Insecticidal effect, Test Example 2 [1, 7]: D (79-50) | Insecticidal effect, Test Example 1 [2, 8]: A (100) | Insecticidal effect, Test Example 3 [3, 9]: A (100)

Cc1ccccc1NC(=O)c1cccc([N+](=O)[O-])c1C(=O)NC(C)C [compound 599]
Insecticidal effect on common cutworm (Test Example 2), judged grade [1]: D (79-50) | Insecticidal effect on diamondback moth (Test Example 1), judged grade [2]: A (100) | Insecticidal effect on rice leafroller (Test Example 3), judged grade [3]: A (100)

COc1cccc(C(=O)Nc2ccc(OC(F)(F)F)cc2)c1C(=O)NC(C)C [compound 767]
Insecticidal effect on common cutworm (Test Example 2), judged grade [1]: C (89-80) | Insecticidal effect on diamondback moth (Test Example 1), judged grade [2]: A (100) | Insecticidal effect on rice leafroller (Test Example 3), judged grade [3]: A (100)

Cc1cc(C(F)(F)F)ccc1NC(=O)c1cccc(I)c1C(=O)NC(C)(C)C [compound 1141]
Insecticidal effect, Test Example 2 [1, 4]: A (100) | Insecticidal effect, Test Example 1 [2, 5]: A (100) | Insecticidal effect, Test Example 3 [3, 6]: A (100)

CC(C)NC(=O)c1c(C(=O)Nc2ccc(C(O)(C(F)(F)F)C(F)(F)F)cc2)cccc1[N+](=O)[O-] [compound 979]
Insecticidal effect, Test Example 2 [1, 4]: A (100) | Insecticidal effect, Test Example 1 [2, 5]: A (100) | Insecticidal effect, Test Example 3 [3, 6]: A (100)

CC(C)NC(=O)c1c(Cl)cccc1C(=O)Nc1cccc(Cl)c1Cl [compound 111]
Insecticidal effect, Test Example 2 [1, 7]: C (89-80) | Insecticidal effect, Test Example 1 [2, 8]: A (100) | Insecticidal effect, Test Example 3 [3, 9]: B (99-90)

CC(C)NC(=O)c1c(I)cccc1C(=O)Nc1ccc(-c2csc(C(F)(F)F)n2)cc1 [compound 1765]
Insecticidal effect (Test Example 2), judged from mortality [1, 7]: A (100) | Insecticidal effect (Test Example 1), judged from mortality [2]: A (100) | Insecticidal effect (Test Example 3), judged from mortality [3, 9]: A (100)

CCc1cc(C(F)(F)C(F)(F)F)ccc1NC(=O)c1cccc(I)c1C(=O)NC(C)(C)C [compound 1475]
Insecticidal effect (Test Example 2), judged from mortality [1, 7]: A (100) | Insecticidal effect (Test Example 1), judged from mortality [2]: A (100) | Insecticidal effect (Test Example 3), judged from mortality [3, 9]: A (100)

CC(C)NC(=O)c1c(I)cccc1C(=O)Nc1ccc([S+]([O-])C(F)(F)Br)cc1 (stereo not drawn) [compound 1113]
Insecticidal effect, Test Example 2 [1, 4]: A (100) | Insecticidal effect, Test Example 1 [2, 5]: A (100) | Insecticidal effect, Test Example 3 [3, 6]: A (100)

CC(C)NC(=O)c1c(I)cccc1C(=O)Nc1ccc2c(c1)OC(F)(F)O2 [compound 1102]
Insecticidal effect, Test Example 2 [1, 4]: A (100) | Insecticidal effect, Test Example 1 [2, 5]: A (100) | Insecticidal effect, Test Example 3 [3, 6]: A (100)

C#Cc1cccc(C(=O)NC(C)C)c1C(=O)Nc1ccc(Cl)cc1C [compound 801]
Insecticidal effect on common cutworm (Test Example 2), judged grade [1]: A (100) | Insecticidal effect on diamondback moth (Test Example 1), judged grade [2]: A (100) | Insecticidal effect on rice leafroller (Test Example 3), judged grade [3]: D (79-50)

Cc1cc(Cl)ccc1NC(=O)c1ccc(Br)c(Br)c1C(=O)NC(C)C [compound 339]
Insecticidal effect, Test Example 2 [1, 7]: B (99-90) | Insecticidal effect, Test Example 1 [2, 8]: A (100) | Insecticidal effect, Test Example 3 [3, 9]: A (100)

Cc1cc(OC(F)(F)C(F)OC(F)(F)F)ccc1NC(=O)c1cccc(Cl)c1C(=O)NC(C)C (stereo not drawn) [compound 149]
Insecticidal effect, Test Example 2 [1, 7]: A (100) | Insecticidal effect, Test Example 1 [2, 8]: A (100) | Insecticidal effect, Test Example 3 [3, 9]: A (100)

Cc1cc(OC(F)(F)C(F)F)c(Cl)cc1NC(=O)c1c(I)cccc1C(=O)NC(C)C [compound 454]
Insecticidal effect on common cutworm (Test Example 2), judged grade [1]: A (100) | Insecticidal effect on diamondback moth (Test Example 1), judged grade [2]: A (100) | Insecticidal effect on rice leafroller (Test Example 3), judged grade [3]: A (100)

Cc1cc(C(F)(F)C(F)(F)C(F)(F)C(F)(F)F)ccc1NC(=O)c1c(Br)cccc1C(=O)NC(C)C [compound 318]
Insecticidal effect, Test Example 2 [1, 7]: B (99-90) | Insecticidal effect, Test Example 1 [2, 8]: A (100) | Insecticidal effect, Test Example 3 [3, 9]: A (100)

CC(C)NC(=O)c1c(C(=O)Nc2ccc(C(F)(C(F)(F)F)C(F)(F)F)cc2)cccc1[N+](=O)[O-] [compound 610]
Insecticidal effect on common cutworm (Test Example 2), judged grade [1]: A (100) | Insecticidal effect on diamondback moth (Test Example 1), judged grade [2]: A (100) | Insecticidal effect on rice leafroller (Test Example 3), judged grade [3]: C (89-80)

CCN(CC)C(=O)c1c(I)cccc1C(=O)Nc1ccc(-c2ccc(Cl)cc2)cc1C [compound 1615]
Insecticidal effect (Test Example 2), judged from mortality [1, 7]: A (100) | Insecticidal effect (Test Example 1), judged from mortality [2]: A (100) | Insecticidal effect (Test Example 3), judged from mortality [3, 9]: A (100)

CC(C)(C)NC(=O)c1cccc(Cl)c1C(=O)Nc1ccc(C(F)(F)F)cc1 [compound 935]
Insecticidal effect on common cutworm (Test Example 2), judged grade [1]: A (100) | Insecticidal effect on diamondback moth (Test Example 1), judged grade [2]: A (100) | Insecticidal effect on rice leafroller (Test Example 3), judged grade [3]: A (100)
